Results taken from patent US20050090532A1, “Medicinal uses of dihydropyrazoles” (The Procter & Gamble Company, priority 2001, published 2005).

System: VEGF
Assay: VEGF-ELISA assay, VEGF secretion from HL-1 cardiomyocyte cell line
Type: cell-based, murine
Conditions: VEGF production; HL-1 cells, 18 hr, 10 concentrations 200 nM to 100 μM; read-out: EC50 (concentration of compound that induces the production of an amount of VEGF equal to half the maximum amount of VEGF induced by the compound)
Experimental: Any compound of the present invention can be screened by a VEGF-ELISA assay. VEGF secretion is assayed in the HL-1 cardiomyocyte cell line as described in Claycomb. W. C., “HL-1 cells: a cardiac muscle cell line that contracts and retains phenotypic characteristics of the adult cardiomyocyte”, Proc. Natl. Acad. Sci U.S.A., Vol. 95, pp. 2979-84 (1998). For experiments, HL-1 cells are plated in 96-well plates at a density of 2×10^4 cells per well in growth medium: EXCEL 320 media (JRH Biosciences, Lenexia, Kans.) plus 10% fetal bovine serum (BioWhitaker), 100 nM retinoic acid (Sigma, St. Louis, Mo.), 10 μM norepinephrine (Sigma), 10 μg/ml insulin (Life Technologies, Grand Island, N.Y.), 1× non-essential amino acid supplement (Life Technologies), 50 μg/ml endothelial cell growth supplement (Upstate Biotechnology, Lake Placid, N.Y.), 100 units/ml penicillin, 100 units/ml streptomycin (Life Technologies). After 24 hrs, the media is replaced with a low-growth media (HL-1 media with 2% fetal bovine serum and without endothelial cell growth supplement) containing test compounds with 0.5% dimethyl sulfoxide (DMSO). After 18 hrs, conditioned media from the treated cells was assayed for VEGF content with a Murine VEGF-ELISA kit (R&D Systems, Minneapolis, Minn.). The amount of VEGF secreted into the media over an 18 hr period is normalized to positive control wells which are treated with a maximally effective concentration (1 mM) of deferoxamine mesylate (Sigma, St. Louis) and are reported as “percent activity,” where the VEGF in unstimulated wells is defined as 0% and the VEGF in wells treated with 1 mM deferoxamine is defined as 100%. Potency is determined by stimulating cells with 10 concentrations of test compounds (200 nM to 100 μM) and fitting the data to a variable slope sigmoidal dose-response curve using GraphPad Prism version 3.00 for Windows 95 (GraphPad Software, San Diego, Calif.). Determinations for each test compound are performed in three separate experiments and the means ± standard deviation of the […] and maximum response are evaluated. Compounds for pharmaceutical use are selected based upon the greatest percent activity.

Question: Which EC50 does the source give for Oc1ccccc1C1=NN(c2ccccn2)C(c2ccccc2)C1 (centres unmarked) [Example 3, 2-(5-Phenyl-1-pyridin-2-yl-4,5-dihydro-1H-pyrazol-3-yl)-phenol] here?
Answer: The EC50 was 1.7 µM.

Question: CN1N=C(c2ccccc2O)CC1c1ccccn1 (centres unmarked) [Example 10, 2-(1-Methyl-5-pyridin-2-yl-4,5-dihydro-1H-pyrazol-3-yl)-phenol] was tested. Which EC50 did it give?
Answer: The EC50 was 92 µM.

Question: How did the EC50 turn out when Cc1ccc(N2N=C(c3ccccn3)CC2c2ccccc2)cc1 (centres unmarked) [Example 14, 2-(5-Phenyl-1-p-tolyl-4,5-dihydro-1H-pyrazol-3-yl)-pyridine] was run?
Answer: The EC50 was 2 µM.

Question: For OCCN1N=C(c2ccccc2O)CC1c1ccccn1 (centres unmarked) [Example 12, 2-[1-(2-Hydroxy-ethyl)-5-pyridin-2-yl-4,5-dihydro-1H-pyrazol-3-yl]-phenol], which EC50 is on record?
Answer: Its EC50 is 65 µM.

Question: How did the EC50 turn out when Oc1ccccc1C1=NN(c2nc3ccccc3s2)C(c2ccccc2)C1 (centres unmarked) [Example 4, 2-(1-Benzothiazol-2-yl-5-phenyl-4,5-dihydro-1H-pyrazol-3-yl)-phenol] was run?
Answer: Its EC50 is 27 µM.

Question: With Oc1ccccc1C1=NN(c2ccccn2)C(c2ccccn2)C1 (centres unmarked) [Example 8, 2-(1,5-Di-pyridin-2-yl-4,5-dihydro-1H-pyrazol-3-yl)-phenol] as the molecule, how does the EC50 read?
Answer: The EC50 was 5.4 µM.

Question: How did the EC50 turn out when c1ccc(C2CC(c3ccccn3)=NN2c2ccccc2)cc1 (centres unmarked) [Example 1, 2-(1,5-Diphenyl-4,5-dihydro-1H-pyrazol-3-yl)-pyridine] was run?
Answer: The EC50 was 23 µM.

Question: Which EC50 does the source give for Oc1ccccc1C1=NN(c2ccccn2)C(c2ccccc2O)C1 (centres unmarked) [Example 9, 2-[5(2-hydroxy-phenyl)-1-pyridin-2-yl-4,5-dihydro-1H-pyrazol-3-yl]-phenol] here?
Answer: The EC50 was 5.4 µM.

Question: Which EC50 does the source give for CN1N=C(c2ccccc2O)CC1c1nccs1 (centres unmarked) [Example 11, 2-(1-Methyl-5-thiazol-2-yl-4,5-dihydro-1H-pyrazol-3-yl)-phenol] here?
Answer: The EC50 was 12 µM.

Question: With COc1ccc(C2CC(c3ccccc3O)=NN2c2ccccn2)cc1 (centres unmarked) [Example 6, 2-[5-(4-Methoxy-phenyl)-1-pyridin-2-yl-4,5-dihydro-1H-pyrazol-3-yl]-phenol] as the molecule, how does the EC50 read?
Answer: Its EC50 is 5.68 µM.

Question: With CN1N=C(c2ccc3ccccc3c2)CC1c1ccc(F)cc1 (centres unmarked) [Example 19, 5-(4-Fluoro-phenyl)-1-methyl-3-naphthalen-2-yl-4,5-dihydro-1H-pyrazole] as the molecule, how does the EC50 read?
Answer: The EC50 was 3.6 µM.

Question: Which EC50 does the source give for c1ccc(C2=NN(c3ccccn3)C(c3ccccc3)C2)cc1 (centres unmarked) [Example 2, 2-(3,5-Diphenyl-4,5-dihydro-pyrazol-1-yl)-pyridine] here?
Answer: The EC50 was 6 µM.

Question: For Cc1ccc(C2CC(c3ccccc3O)=NN2c2ccccn2)cc1 (centres unmarked) [Example 5, 2-(1-Pyridin-2-yl-5-p-tolyl-4,5-dihydro-1H-pyrazol-3-yl)-phenol], which EC50 is on record?
Answer: The EC50 was 5.7 µM.

Question: How did the EC50 turn out when COc1ccccc1C1CC(c2ccccc2O)=NN1c1ccccn1 (centres unmarked) [Example 7, 2-[5-(2-Methoxy-phenyl)-1-pyridin-2-yl-4,5-dihydro-1H-pyrazol-3-yl]-phenol] was run?
Answer: The EC50 was 5.5 µM.

Question: Clc1cccc(C2CC(c3ccccn3)=NN2c2ccccc2)c1 (centres unmarked) [Example 16, 2-[5-(3-Chloro-phenyl)-1-phenyl-4,5-dihydro-1H-pyrazol-3-yl]-pyridine] was tested. Which EC50 did it give?
Answer: Its EC50 is 1.7 µM.

Question: Which EC50 does the source give for CN(C)c1ccc(C2CC(c3ccccc3)=NN2c2ccccc2)cc1 (centres unmarked) [Example 17, [4-(2,5-Diphenyl-3,4-dihydro-2H-pyrazol-3-yl)-phenyl]-dimethyl-amine] here?
Answer: Its EC50 is 6 µM.

Question: COc1ccc(C2CC(c3ccc4ccccc4c3)=NN2C)cc1 (centres unmarked) [Example 18, 5-(4-Methoxy-phenyl)-1-methyl-3-naphthalen-2-yl-4,5-dihydro-1H-pyrazole] was tested. Which EC50 did it give?
Answer: The EC50 was 11 µM.

Question: How did the EC50 turn out when CN1N=C(c2ccc3ccccc3c2)CC1c1ccc(C(F)(F)F)cc1 (centres unmarked) [Example 20, 1-Methyl-3-naphthalen-2-yl-5-(4-trifluoromethyl-phenyl)-4,5-dihydro-1H-pyrazole] was run?
Answer: The EC50 was 13 µM.

Question: N#CCCN1N=C(c2ccccc2O)CC1c1ccccn1 (centres unmarked) [Example 13, 3-[3-(2-Hydroxy-phenyl)-5-pyridin-2-yl-4,5-dihydro-pyrazol-1-yl]-propionitrile] was tested. Which EC50 did it give?
Answer: The EC50 was 18 µM.

Question: With Brc1ccc(N2N=C(c3ccccn3)CC2c2ccccc2)cc1 (centres unmarked) [Example 15, 2-[1-(4-Bromo-phenyl)-5-phenyl-4,5-dihydro-1H-pyrazol-3-yl]-pyridine] as the molecule, how does the EC50 read?
Answer: The EC50 was 6.3 µM.
